Laboratory results reported in the kinase profiling compilation of Christmann-Franck et al. (2016).

Key:
Assay in all cases: KINOMEscan competition binding
Conditions in all cases: compound 10.0 µM
[1] = biological target: RPS6KA3 KD1 (human) (UniProt P51812)
[2] = biological target: CDC2L2 (human) (UniProt Q9UQ88)
[3] = biological target: DDR1 (human) (UniProt Q08345)
[4] = biological target: CDK2 (human) (UniProt P24941)
[5] = biological target: CAMK2D (human) (UniProt Q13557)
[6] = biological target: TSSK1B (human) (UniProt Q9BXA7)
[7] = biological target: PAK6 (human) (UniProt Q9NQU5)
[8] = biological target: DYRK1B (human) (UniProt Q9Y463)
[9] = biological target: EPHB6 (human) (UniProt O15197)
[10] = biological target: MAPK11 (human) (UniProt Q15759)
[11] = biological target: CAMK1D (human) (UniProt Q8IU85)
[12] = biological target: ROCK2 (human) (UniProt O75116)
[13] = biological target: TEC (human) (UniProt P42680)
[14] = biological target: ACVR2B (human) (UniProt Q13705)
[15] = biological target: MAP2K2 (human) (UniProt P36507)
[16] = biological target: PIP4K2B (human) (UniProt P78356)
[17] = biological target: SRPK3 (human) (UniProt Q9UPE1)
[18] = biological target: ALK (human) (UniProt Q9UM73)
[19] = biological target: EPHA2 (human) (UniProt P29317)
[20] = biological target: CHEK2 (human) (UniProt O96017)
[21] = biological target: CSNK1G2 (human) (UniProt P78368)
[22] = biological target: STK38 (human) (UniProt Q15208)
[23] = biological target: NUAK1 (human) (UniProt O60285)
[24] = biological target: MYLK3 (human) (UniProt Q32MK0)
[25] = biological target: MERTK (human) (UniProt Q12866)
[26] = biological target: NTRK3 (human) (UniProt Q16288)
[27] = biological target: EPHA1 (human) (UniProt P21709)
[28] = biological target: PRKD2 (human) (UniProt Q9BZL6)
[29] = biological target: TGFBR2 (human) (UniProt P37173)
[30] = biological target: BLK (human) (UniProt P51451)
[31] = biological target: NIM1 (human) (UniProt Q8IY84)
[32] = biological target: BMPR2 (human) (UniProt Q13873)
[33] = biological target: AAK1 (human) (UniProt Q2M2I8)
[34] = biological target: EPHB2 (human) (UniProt P29323)
[35] = biological target: STK32B (human) (UniProt Q9NY57)
[36] = biological target: EGFR (human) (UniProt P00533)
[37] = biological target: STK33 (human) (UniProt Q9BYT3)
[38] = biological target: RPS6KB1 (human) (UniProt P23443)
[39] = biological target: NEK11 (human) (UniProt Q8NG66)
[40] = biological target: CDK4 CCND1 (human) (UniProt P11802+P24385)

EPHA1 (human), sequence (P21709 whole entry, looked up): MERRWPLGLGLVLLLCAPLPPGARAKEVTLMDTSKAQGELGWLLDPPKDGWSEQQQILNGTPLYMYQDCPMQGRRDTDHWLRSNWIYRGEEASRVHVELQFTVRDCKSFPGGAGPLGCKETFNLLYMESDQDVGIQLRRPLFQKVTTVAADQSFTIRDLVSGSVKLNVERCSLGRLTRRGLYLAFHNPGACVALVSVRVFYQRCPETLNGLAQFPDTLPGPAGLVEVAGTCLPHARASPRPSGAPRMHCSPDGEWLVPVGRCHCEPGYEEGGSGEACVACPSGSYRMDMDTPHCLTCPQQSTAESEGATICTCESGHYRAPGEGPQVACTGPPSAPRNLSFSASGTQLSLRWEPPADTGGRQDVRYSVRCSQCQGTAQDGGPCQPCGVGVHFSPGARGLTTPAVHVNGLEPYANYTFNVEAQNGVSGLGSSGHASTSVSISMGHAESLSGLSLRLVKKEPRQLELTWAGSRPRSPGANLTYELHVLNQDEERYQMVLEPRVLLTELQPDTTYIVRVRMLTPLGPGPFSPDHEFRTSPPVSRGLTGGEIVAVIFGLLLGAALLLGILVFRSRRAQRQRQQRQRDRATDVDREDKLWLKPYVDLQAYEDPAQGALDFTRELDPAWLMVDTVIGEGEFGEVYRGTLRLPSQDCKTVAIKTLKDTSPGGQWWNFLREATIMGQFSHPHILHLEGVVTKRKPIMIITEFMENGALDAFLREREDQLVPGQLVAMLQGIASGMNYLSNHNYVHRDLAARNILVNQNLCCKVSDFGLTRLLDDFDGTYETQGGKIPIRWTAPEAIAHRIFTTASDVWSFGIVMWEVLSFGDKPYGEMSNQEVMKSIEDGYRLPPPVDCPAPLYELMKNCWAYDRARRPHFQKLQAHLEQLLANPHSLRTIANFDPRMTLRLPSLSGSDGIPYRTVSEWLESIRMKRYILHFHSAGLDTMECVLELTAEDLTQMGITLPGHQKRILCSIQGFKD
BLK (human), sequence (P51451 whole entry, looked up): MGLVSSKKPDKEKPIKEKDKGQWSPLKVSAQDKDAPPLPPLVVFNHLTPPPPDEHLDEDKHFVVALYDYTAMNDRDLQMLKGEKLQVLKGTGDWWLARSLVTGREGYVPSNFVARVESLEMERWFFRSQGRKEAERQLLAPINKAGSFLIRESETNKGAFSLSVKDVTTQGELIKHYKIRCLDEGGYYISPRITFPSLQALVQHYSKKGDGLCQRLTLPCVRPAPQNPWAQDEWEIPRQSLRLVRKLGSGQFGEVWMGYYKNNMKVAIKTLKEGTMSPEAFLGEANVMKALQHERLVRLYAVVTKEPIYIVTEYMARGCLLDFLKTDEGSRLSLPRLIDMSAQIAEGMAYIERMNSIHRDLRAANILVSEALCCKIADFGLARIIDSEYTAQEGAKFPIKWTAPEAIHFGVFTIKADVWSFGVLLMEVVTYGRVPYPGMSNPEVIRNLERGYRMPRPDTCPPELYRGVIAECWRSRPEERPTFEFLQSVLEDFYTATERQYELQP
NTRK3 (human), sequence (Q16288 whole entry, looked up): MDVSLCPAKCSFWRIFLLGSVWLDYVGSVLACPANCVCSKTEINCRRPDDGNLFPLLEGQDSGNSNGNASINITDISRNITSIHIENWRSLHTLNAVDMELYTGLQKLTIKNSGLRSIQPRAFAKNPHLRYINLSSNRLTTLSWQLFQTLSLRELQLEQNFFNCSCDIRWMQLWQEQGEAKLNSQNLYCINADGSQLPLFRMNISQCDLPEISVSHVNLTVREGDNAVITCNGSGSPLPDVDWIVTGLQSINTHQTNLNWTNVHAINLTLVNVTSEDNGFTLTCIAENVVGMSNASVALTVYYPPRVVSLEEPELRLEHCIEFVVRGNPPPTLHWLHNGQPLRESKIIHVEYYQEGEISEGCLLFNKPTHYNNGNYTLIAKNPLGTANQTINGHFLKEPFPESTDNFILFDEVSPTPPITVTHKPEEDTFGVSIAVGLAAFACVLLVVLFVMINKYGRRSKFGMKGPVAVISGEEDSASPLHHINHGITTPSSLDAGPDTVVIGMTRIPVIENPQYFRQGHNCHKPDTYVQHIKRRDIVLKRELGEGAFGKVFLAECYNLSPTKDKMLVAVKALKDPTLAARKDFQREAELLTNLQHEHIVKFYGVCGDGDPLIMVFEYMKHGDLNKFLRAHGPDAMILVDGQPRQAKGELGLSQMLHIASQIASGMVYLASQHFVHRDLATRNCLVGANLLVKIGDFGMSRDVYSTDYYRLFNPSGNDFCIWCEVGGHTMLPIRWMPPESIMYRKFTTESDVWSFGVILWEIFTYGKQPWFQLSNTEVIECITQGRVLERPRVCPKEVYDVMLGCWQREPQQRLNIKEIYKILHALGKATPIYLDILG
EPHB2 (human), sequence (P29323 whole entry, looked up): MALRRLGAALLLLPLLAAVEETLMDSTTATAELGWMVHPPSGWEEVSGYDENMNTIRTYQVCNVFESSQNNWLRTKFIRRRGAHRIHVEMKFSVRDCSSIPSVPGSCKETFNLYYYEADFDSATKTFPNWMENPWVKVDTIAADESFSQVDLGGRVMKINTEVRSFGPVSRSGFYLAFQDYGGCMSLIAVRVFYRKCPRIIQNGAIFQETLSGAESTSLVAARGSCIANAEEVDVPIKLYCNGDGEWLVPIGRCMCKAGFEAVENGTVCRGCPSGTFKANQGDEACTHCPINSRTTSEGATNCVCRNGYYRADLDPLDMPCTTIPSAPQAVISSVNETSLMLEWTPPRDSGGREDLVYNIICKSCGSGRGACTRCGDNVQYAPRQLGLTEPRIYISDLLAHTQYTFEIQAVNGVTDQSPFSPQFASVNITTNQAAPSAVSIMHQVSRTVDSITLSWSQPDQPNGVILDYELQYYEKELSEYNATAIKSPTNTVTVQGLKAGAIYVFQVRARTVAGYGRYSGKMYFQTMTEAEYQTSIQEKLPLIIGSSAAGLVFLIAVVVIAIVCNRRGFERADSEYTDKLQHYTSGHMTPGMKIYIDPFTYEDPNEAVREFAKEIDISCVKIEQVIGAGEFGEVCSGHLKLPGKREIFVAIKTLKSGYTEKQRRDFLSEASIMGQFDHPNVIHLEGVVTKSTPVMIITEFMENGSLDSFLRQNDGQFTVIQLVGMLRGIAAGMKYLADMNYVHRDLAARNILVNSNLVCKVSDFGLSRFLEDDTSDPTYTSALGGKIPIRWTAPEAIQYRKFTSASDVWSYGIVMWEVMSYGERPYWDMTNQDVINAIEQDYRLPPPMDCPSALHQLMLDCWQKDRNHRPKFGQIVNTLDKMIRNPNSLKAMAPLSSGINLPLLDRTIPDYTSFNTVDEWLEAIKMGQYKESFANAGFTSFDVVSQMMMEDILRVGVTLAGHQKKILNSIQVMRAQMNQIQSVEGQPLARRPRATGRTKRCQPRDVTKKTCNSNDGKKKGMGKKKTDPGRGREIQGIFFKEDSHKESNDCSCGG
EGFR (human), sequence (P00533 whole entry, looked up): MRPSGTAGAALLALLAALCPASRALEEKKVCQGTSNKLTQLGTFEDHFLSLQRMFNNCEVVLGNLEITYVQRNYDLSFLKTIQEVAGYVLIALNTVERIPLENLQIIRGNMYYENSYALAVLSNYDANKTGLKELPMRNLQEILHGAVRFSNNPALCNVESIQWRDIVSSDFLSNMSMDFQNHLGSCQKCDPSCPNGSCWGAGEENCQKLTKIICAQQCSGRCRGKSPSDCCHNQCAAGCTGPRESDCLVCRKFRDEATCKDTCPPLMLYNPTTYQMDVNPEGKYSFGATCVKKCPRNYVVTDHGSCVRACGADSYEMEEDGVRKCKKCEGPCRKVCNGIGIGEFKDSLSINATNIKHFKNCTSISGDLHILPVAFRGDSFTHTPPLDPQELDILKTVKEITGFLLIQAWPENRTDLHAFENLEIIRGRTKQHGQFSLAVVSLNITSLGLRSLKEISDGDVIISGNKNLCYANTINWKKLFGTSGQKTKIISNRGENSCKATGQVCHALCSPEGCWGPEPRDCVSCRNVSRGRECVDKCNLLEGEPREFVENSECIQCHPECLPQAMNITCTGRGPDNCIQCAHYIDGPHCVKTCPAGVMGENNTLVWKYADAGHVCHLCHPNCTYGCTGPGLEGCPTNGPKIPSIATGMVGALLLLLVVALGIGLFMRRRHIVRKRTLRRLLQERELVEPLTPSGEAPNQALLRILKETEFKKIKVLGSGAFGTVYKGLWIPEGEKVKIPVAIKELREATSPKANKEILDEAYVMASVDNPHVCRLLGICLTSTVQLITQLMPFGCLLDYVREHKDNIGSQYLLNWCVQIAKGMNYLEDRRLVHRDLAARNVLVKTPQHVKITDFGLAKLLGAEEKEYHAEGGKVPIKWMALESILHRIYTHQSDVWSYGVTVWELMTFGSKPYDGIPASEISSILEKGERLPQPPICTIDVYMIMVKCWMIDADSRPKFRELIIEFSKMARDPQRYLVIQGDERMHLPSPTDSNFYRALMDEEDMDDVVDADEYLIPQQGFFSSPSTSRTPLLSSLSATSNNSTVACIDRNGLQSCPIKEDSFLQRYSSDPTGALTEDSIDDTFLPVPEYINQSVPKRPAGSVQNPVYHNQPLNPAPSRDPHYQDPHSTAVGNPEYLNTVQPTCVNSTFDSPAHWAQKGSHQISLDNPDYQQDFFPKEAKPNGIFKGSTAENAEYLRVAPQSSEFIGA
CSNK1G2 (human), sequence (P78368 whole entry, looked up): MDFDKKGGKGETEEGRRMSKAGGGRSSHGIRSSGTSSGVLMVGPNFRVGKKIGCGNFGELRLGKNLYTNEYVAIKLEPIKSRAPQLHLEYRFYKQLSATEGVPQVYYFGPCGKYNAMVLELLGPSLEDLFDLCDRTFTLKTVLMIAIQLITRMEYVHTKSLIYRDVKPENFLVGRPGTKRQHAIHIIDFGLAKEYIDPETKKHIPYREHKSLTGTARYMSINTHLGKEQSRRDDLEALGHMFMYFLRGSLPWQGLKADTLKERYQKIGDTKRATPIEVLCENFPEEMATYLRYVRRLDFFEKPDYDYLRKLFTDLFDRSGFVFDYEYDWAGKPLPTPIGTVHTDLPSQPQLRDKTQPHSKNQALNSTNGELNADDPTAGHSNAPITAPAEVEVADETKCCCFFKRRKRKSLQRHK

SMILES	kinase still bound, per cent of control [1]	kinase still bound, per cent of control [2]	kinase still bound, per cent of control [3]	kinase still bound, per cent of control [4]	kinase still bound, per cent of control [5]	kinase still bound, per cent of control [6]	kinase still bound, per cent of control [7]	kinase still bound, per cent of control [8]	kinase still bound, per cent of control [9]	kinase still bound, per cent of control [10]	kinase still bound, per cent of control [11]	kinase still bound, per cent of control [12]	kinase still bound, per cent of control [13]	kinase still bound, per cent of control [14]	kinase still bound, per cent of control [15]	kinase still bound, per cent of control [16]	kinase still bound, per cent of control [17]	kinase still bound, per cent of control [19]	kinase still bound, per cent of control [20]	kinase still bound, per cent of control [21]	further results
CCN(CC)CCCCNc1ncc2c(n1)N(C)C(=O)N(c1c(Cl)c(OC)cc(OC)c1Cl)C2	100%	26%	0.15%	100%	100%	100%	100%	100%	5.2%	100%	25%	100%	100%	100%	100%	100%	100%	100%	100%	100%	kinase still bound, per cent of control [18]: 100%; kinase still bound, per cent of control [22]: 100%; kinase still bound, per cent of control [23]: 100%; kinase still bound, per cent of control [24]: 100%; kinase still bound, per cent of control [25]: 100%; kinase still bound, per cent of control [26]: 100%; kinase still bound, per cent of control [27]: 100%; kinase still bound, per cent of control [28]: 100%; kinase still bound, per cent of control [29]: 100%; kinase still bound, per cent of control [30]: 100%; kinase still bound, per cent of control [31]: 100%; kinase still bound, per cent of control [32]: 100%; kinase still bound, per cent of control [33]: 100%; kinase still bound, per cent of control [34]: 100%; kinase still bound, per cent of control [35]: 100%; kinase still bound, per cent of control [36]: 100%; kinase still bound, per cent of control [37]: 100%
COc1cc(N2CCN(C)CC2)ccc1Nc1ncc2c(n1)N(C)c1ccccc1C(=O)N2C	100%	100%	100%	100%	23%	100%	100%	100%	34%	100%	100%	100%	100%	100%	100%	100%	100%	100%	30%	100%	kinase still bound, per cent of control [18]: 16%; kinase still bound, per cent of control [22]: 100%; kinase still bound, per cent of control [23]: 7.6%; kinase still bound, per cent of control [24]: 100%; kinase still bound, per cent of control [25]: 100%; kinase still bound, per cent of control [26]: 100%; kinase still bound, per cent of control [27]: 100%; kinase still bound, per cent of control [28]: 0.55%; kinase still bound, per cent of control [29]: 100%; kinase still bound, per cent of control [30]: 100%; kinase still bound, per cent of control [31]: 100%; kinase still bound, per cent of control [32]: 100%; kinase still bound, per cent of control [33]: 100%; kinase still bound, per cent of control [34]: 100%; kinase still bound, per cent of control [35]: 100%; kinase still bound, per cent of control [36]: 100%; kinase still bound, per cent of control [37]: 8.8%
C[C@@H](Oc1cc(-c2cnn(C3CCNCC3)c2)cnc1N)c1c(Cl)ccc(F)c1Cl	47%	0.35%	0.4%	81%	100%	40%	72%	84%	0.2%	100%	37%	8%	100%	38%	54%	3.8%	15%	1.5%	100%	100%	kinase still bound, per cent of control [38]: 1.8%; kinase still bound, per cent of control [39]: 98%; kinase still bound, per cent of control [22]: 68%; kinase still bound, per cent of control [23]: 0.7%; kinase still bound, per cent of control [24]: 100%; kinase still bound, per cent of control [25]: 2.1%; kinase still bound, per cent of control [27]: 0.85%; kinase still bound, per cent of control [28]: 3.3%; kinase still bound, per cent of control [29]: 100%; kinase still bound, per cent of control [31]: 12%; kinase still bound, per cent of control [32]: 28%; kinase still bound, per cent of control [33]: 21%; kinase still bound, per cent of control [40]: 51%; kinase still bound, per cent of control [34]: 24%; kinase still bound, per cent of control [35]: 100%; kinase still bound, per cent of control [37]: 26%
CS(=O)(=O)N1CCN(Cc2cc3nc(-c4cccc5[nH]ncc45)nc(N4CCOCC4)c3s2)CC1	100%	100%	100%	100%	100%	100%	100%	100%	100%	100%	100%	100%	100%	100%	100%	100%	100%	100%	100%	100%	kinase still bound, per cent of control [18]: 100%; kinase still bound, per cent of control [22]: 100%; kinase still bound, per cent of control [23]: 100%; kinase still bound, per cent of control [24]: 100%; kinase still bound, per cent of control [25]: 100%; kinase still bound, per cent of control [26]: 100%; kinase still bound, per cent of control [27]: 100%; kinase still bound, per cent of control [28]: 100%; kinase still bound, per cent of control [29]: 100%; kinase still bound, per cent of control [30]: 100%; kinase still bound, per cent of control [31]: 100%; kinase still bound, per cent of control [32]: 100%; kinase still bound, per cent of control [33]: 100%; kinase still bound, per cent of control [34]: 100%; kinase still bound, per cent of control [35]: 100%; kinase still bound, per cent of control [36]: 100%; kinase still bound, per cent of control [37]: 100%
